# Legend:
# [1] = system: HeLa cells; experiment: Staining of EdU-labeled live cells with TMR-propyl-azide, time-lapse fluorescence microscopy; type: cell-based; conditions: 200 nM TMR-propyl-azide, 37° C., FIG. 7
# Description: Ascorbic acid (from a […] stock in water) was then added to this solution to a final concentration of 50 mM, and the resulting staining solution is mixed thoroughly.
# Washes with methanol or ethanol may be performed to obtain low background
# To facilitate live microscopic imaging, EdU-labeled cells were plated in coverslip chambers which were mounted on the heated stage (37° C.) of an inverted Nikon TE200)U microscope equipped for wide-field fluorescence microscopy as well as spinning-disk confocal fluorescence microscopy (Yokogama spinning disk confocal head from Perkin-Elmer). […] The cells were imaged by time-lapse fluorescent microscopy (one frame every 15 seconds) to detect the TMR signal accumulating in the nuclei of the EdU-labeled cells.
# [2] = system: mouse intestine and brain; experiment: In vivo labeling with EdU, organ sections stained with Xrhodamine-azide and Hoechst; parameters: species or system mice; conditions: 200 micrograms EdU intraperitoneally, organs harvested three days later
# Description: BLAB/C mice were injected with 200 micrograms of EdU intraperitoneally. Three days later, organs were harvested, fixed, embedded in paraffin and sectioned. The sections were then de-waxed and stained with Xrhadomine-azide for 5 minutes, stained with Hoechst, washed and then mounted.
# [3] = system: HeLa cells; experiment: Tracing a single sister chromatid: EdU pulse, chase of two cell cycles, Alexa568-azide staining; type: cell-based; conditions: EdU pulse during DNA synthesis, Alexa568-azide stain
# From the text: The purpose of the experiment reported herein was to label only one DNA molecule of the two that form a chromosome. That was accomplished by pulsing HeLa cells with EdU during DNA synthesis followed by a chase lasting two cell cycles, as depicted on FIG. 12. […] EdU allowed very nice resolution imaging of chromosomes in cells as shown by FIG. 13.
# [4] = system: HeLa cells; experiment: Labeling of HeLa cells with EdU, fixed/permeabilized, stained with Xrhodamine-azide; type: cell-based; conditions: 1 μM EdU; cell in anaphase; labeling pulse shorter than DNA replication time
# Description: Ethynyl-dU (EdU) was used in tissue culture media (DMEM complemented with penicillin, streptomycin, and fetal calf serum (FCS)) ranging from 10 nM to 1 μM depending on the length of the labeling pulse. For example, if cells to be labeled were synchronized in the S phase, 100 nM to 1 μM of EdU was used for 1 to 2 hours. After labeling, the cells were washed 3 or 4 times with PBS and then tissue culture media was added.
# Staining Solution: 100 mM Tris pH 8.5 (from 2 M stock in water), 0.5 to 1 mM CuSO4 (from 1 M stock in water), 0.5 to 1 μM fluorophore-azide (from approximately 10-100 mM stock in DMSO), and water (as required) were mixed together. Ascorbic acid (from a […] stock in water) was then added to this solution to a final concentration of 50-100 mM, and the resulting staining solution is mixed thoroughly using a vortex.
# Cells can be fixed by any suitable method, e.g., cells can be fixed by aldehyde fixation (formaldehyde or glutaraldehyde), with or without permeabilization. After fixation, the cells were washed in buffer with or without non-ionic detergent (0.2-0.5% Triton X100). Before staining, cells were rinsed with buffer without detergent (PBS or TBS). The cells were then incubated in the presence of the staining solution for at least 30 minutes. Overnight staining is preferably performed in a cold room.
smiles,measurement,setting,value
"C#Cc1cn([C@H]2C[C@H](O)[C@@H](CO)O2)c(=O)[nH]c1=O [EdU, 5-ethynyl-2′ deoxyuracil]",EdU detection over time (DNA staining intensity),[1],complete within minutes
same,EdU-labeled cells in intestine section,[2]; FIG. 8,cells with red nuclei are the cells which incorporated EdU
same,EdU-labeled cells in brain section,[2]; FIG. 10,sole EdU-labeled cell
same,"DNA molecules of a chromosome labeled, first mitosis after labeling",[3],both DNA molecules were labeled
same,"DNA molecules of a chromosome labeled, second mitosis",[3],only one DNA molecule was labeled
same,DNA labeling by EdU in HeLa cells,[4],only the DNA replicating during the pulse was labeled
